The values below come from ChEMBL document CHEMBL1201862, “PubChem BioAssay data set” (2004).

Some test systems named below: A549; CAKI-1; COLO 205; EKVX; HL-60; KM12; LOX IMVI; MCF7; MOLT-4; NCI-H226; NCI-H460; NCI-H522; OVCAR-3; SF-268; SF-539; SK-MEL-28; SK-MEL-5; SW-620; UACC-257; ACHN.
Experiment in all cases: DTP human tumour cell line panel, 48 h

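Five concentrations, 48 hours, 96-well plates. GI50 is the concentration that inhibits growth by half.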 Calls of active or inactive are those of the source. Cut-off read from the data, not from the text of the source: active = GI50 up to about 1.1 µM and inactive = higher.

One may read the GI50 as the concentration that inhibits growth by half.

With `CCC(C(C)N1CC(=O)NC(=O)C1)N1CC(=O)NC(=O)C1` (configuration not stated), the GI50 in the test with A549 is 1.51 µM (inactive); in the test with CAKI-1, > 100 µM (inactive); in the test on COLO 205, 0.506 µM (active); with EKVX it was > 19.7 µM (inactive); in the test on HL-60, 2.06 µM (inactive); in the test with KM12 it was > 100 µM (inactive). The GI50 in the test with LOX IMVI was > 100 µM (inactive); in the test on MCF7, 4.08 µM (inactive); in the test on MOLT-4 it was 0.69 µM (active); in the test with NCI-H226, 16.1 µM (inactive); in the test on NCI-H460, 0.141 µM (active); in the test on NCI-H522, 5.65 µM (inactive). Further, the GI50 with OVCAR-3 is > 100 µM (inactive); in the test on SF-268, > 87.9 µM (inactive); with SF-539, > 39.7 µM (inactive); in the test with SK-MEL-28 it was > 100 µM (inactive); with SK-MEL-5 it was 12.5 µM (inactive); in the test on SW-620 it was 17.4 µM (inactive). In addition, the GI50 in the test with UACC-257 is > 100 µM (inactive).

As to `CCCCSCC(NC(=O)/C=C/c1c(C)[nH]c(=O)[nH]c1=O)C(=O)OC` (configuration not stated), the GI50 with A549 was 124 µM (inactive); in the test with CAKI-1, 32.3 µM (inactive); with COLO 205, 36.5 µM (inactive); in the test on EKVX, 34.2 µM (inactive); in the test on HL-60, 76.6 µM (inactive); in the test on KM12 it was 24.9 µM (inactive). Moreover, the GI50 in the test on LOX IMVI is 78.3 µM (inactive); with MCF7, 15.6 µM (inactive); in the test on MOLT-4 it was 50.1 µM (inactive); in the test with NCI-H226 it was 43.9 µM (inactive); with NCI-H460, 57.5 µM (inactive); in the test on NCI-H522, 14.9 µM (inactive). The GI50 in the test with OVCAR-3 is 13.2 µM (inactive); in the test on SF-268, 23 µM (inactive); in the test on SF-539, 61.2 µM (inactive); with SK-MEL-28 it was 75 µM (inactive); in the test on SK-MEL-5 it was 64.9 µM (inactive); with SW-620, 78 µM (inactive). Besides, the GI50 with UACC-257 is 81.7 µM (inactive).

Take `CCC(=O)ONC(=O)Cn1ccc([N+](=O)[O-])n1`: the GI50 with A549, in the test with ACHN, with CAKI-1, with COLO 205, in the test on EKVX and in the test on HL-60 was > 100 µM (inactive) in each case. In addition, the GI50 in the test with KM12, in the test on LOX IMVI, in the test on MCF7, in the test with MOLT-4, with NCI-H226 and with NCI-H522 was > 100 µM (inactive) in each case. For the same compound, the GI50 with OVCAR-3, with SF-268, with SF-539, with SK-MEL-28, in the test with SK-MEL-5 and in the test on SW-620 was > 100 µM (inactive) throughout. In addition, the GI50 in the test with UACC-257 was > 100 µM (inactive).

In the case of `CC1(C)N=C(C2CCCN2C(=O)OCc2ccccc2)OC1=O` (configuration not stated), the GI50 with A549, with ACHN, with CAKI-1, in the test on COLO 205, in the test with HL-60 and in the test on KM12 was > 100 µM (inactive) each time. The GI50 with LOX IMVI, in the test on MCF7, with MOLT-4, in the test with NCI-H226, in the test on NCI-H460 and with NCI-H522 was > 100 µM (inactive) each time. The GI50 in the test on OVCAR-3, in the test on SF-268, with SF-539, in the test on SK-MEL-28, in the test on SK-MEL-5 and with SW-620 was > 100 µM (inactive) each time. Further, the GI50 in the test on UACC-257 is > 100 µM (inactive).

As for `Cc1ccc2c(c1)/C(=N/Nc1ccccc1[N+](=O)[O-])C(=O)N2`, the GI50 in the test with A549 is 27.9 µM (inactive); in the test with CAKI-1, 3.32 µM (inactive); in the test with COLO 205, 14.6 µM (inactive); in the test with EKVX it was 2.65 µM (inactive); with HL-60, > 100 µM (inactive); in the test on KM12, 4.19 µM (inactive). Further, the GI50 with LOX IMVI is 4.36 µM (inactive); in the test with MCF7, 12 µM (inactive); in the test on MOLT-4, > 100 µM (inactive); in the test on NCI-H226 it was 8.41 µM (inactive); in the test on NCI-H460, 3.89 µM (inactive); in the test with NCI-H522, 2.31 µM (inactive). The GI50 was 4.85 µM (inactive) with OVCAR-3; 3.4 µM (inactive) with SF-268; 2.11 µM (inactive) in the test with SF-539; > 100 µM (inactive) in the test on SK-MEL-28; 7.35 µM (inactive) with SK-MEL-5; 35.3 µM (inactive) with SW-620. In addition, the GI50 in the test with UACC-257 is 13.9 µM (inactive).

In the case of `[N-]=[N+]=NCc1cccc(Nc2cc(=O)[nH]c(=O)[nH]2)c1`, the GI50 with A549, in the test with ACHN, in the test on CAKI-1, in the test on COLO 205, in the test with EKVX and in the test on HL-60 was > 100 µM (inactive) in each case. For the same compound, the GI50 with KM12, in the test with LOX IMVI, with MCF7, with MOLT-4, in the test on NCI-H226 and in the test on NCI-H522 was > 100 µM (inactive) each time. Moreover, the GI50 in the test with OVCAR-3, in the test with SF-268, in the test on SF-539, in the test on SK-MEL-28, in the test on SK-MEL-5 and in the test on SW-620 was > 100 µM (inactive) each time. Moreover, the GI50 with UACC-257 was 30.8 µM (inactive).

Take `O=C(Cc1csc2[n+]1C(=O)/C(=C/c1ccc(Cl)cc1)S2)Nc1ccccc1`: the GI50 in the test on A549 is 24.1 µM (inactive); in the test on ACHN it was 15.4 µM (inactive); with CAKI-1 it was 28.1 µM (inactive); in the test with COLO 205, 14.9 µM (inactive); in the test with EKVX, 16.3 µM (inactive); with HL-60 it was 20.2 µM (inactive). Further, the GI50 is 22.5 µM (inactive) with KM12; 16.2 µM (inactive) with LOX IMVI; 15.4 µM (inactive) in the test with MCF7; 15.6 µM (inactive) with NCI-H226; 18.7 µM (inactive) in the test with NCI-H460; 15.3 µM (inactive) with NCI-H522. For the same compound, the GI50 was 12.8 µM (inactive) with OVCAR-3; 21.5 µM (inactive) with SF-268; 27.8 µM (inactive) with SF-539; 30.4 µM (inactive) in the test with SK-MEL-28; 10.9 µM (inactive) in the test on SK-MEL-5; 26.4 µM (inactive) in the test with SW-620. In addition, in the test on UACC-257, the GI50 is 19.2 µM (inactive).

Turning to `CC(C)=CCC/C(C)=C/CC/C(C)=C/CC/C(=C/CC/C(C)=C\CC/C(C)=C/CC/C(C)=C/CC/C(C)=C/Cc1cc(O)ccc1O)CO`, the GI50 is 4.14 µM (inactive) with A549; 12.4 µM (inactive) with ACHN; 1.71 µM (inactive) in the test on CAKI-1; 2.28 µM (inactive) in the test with COLO 205; 12.1 µM (inactive) with EKVX; 3.15 µM (inactive) in the test on HL-60. In addition, the GI50 in the test with KM12 is 1.67 µM (inactive); in the test on LOX IMVI, 2.94 µM (inactive); with MCF7, 2.55 µM (inactive); with NCI-H226, 2.29 µM (inactive); in the test with NCI-H460, 9.57 µM (inactive); in the test on NCI-H522 it was 1.57 µM (inactive). Moreover, the GI50 with OVCAR-3 was 4.42 µM (inactive); in the test with SF-268, 2.67 µM (inactive); in the test on SF-539, 0.824 µM (active); with SK-MEL-28, 2.29 µM (inactive); in the test on SK-MEL-5, 2.48 µM (inactive); in the test on SW-620, 8.71 µM (inactive). Further, in the test with UACC-257, the GI50 is 3.07 µM (inactive).
